Results taken from ChEMBL document CHEMBL3745672, “Novel compounds reducing IRS-1 serine phosphorylation for treatment of diabetes” (Bioorg Med Chem Lett, 2016).
Activity calls are given as the source filed them. The calls are words filed in the database; no cut-off is given here.

Key:
[1] = target: RAC-alpha serine/threonine-protein kinase (Homo sapiens) (UniProt P31749); assay: Inhibition of AKT1 (unknown origin) at 1 uM
[2] = target: T1, Aurora kinase A (Homo sapiens) (UniProt O14965); assay: Inhibition of AurA (unknown origin) at 1 uM
T1 sequence (whole entry): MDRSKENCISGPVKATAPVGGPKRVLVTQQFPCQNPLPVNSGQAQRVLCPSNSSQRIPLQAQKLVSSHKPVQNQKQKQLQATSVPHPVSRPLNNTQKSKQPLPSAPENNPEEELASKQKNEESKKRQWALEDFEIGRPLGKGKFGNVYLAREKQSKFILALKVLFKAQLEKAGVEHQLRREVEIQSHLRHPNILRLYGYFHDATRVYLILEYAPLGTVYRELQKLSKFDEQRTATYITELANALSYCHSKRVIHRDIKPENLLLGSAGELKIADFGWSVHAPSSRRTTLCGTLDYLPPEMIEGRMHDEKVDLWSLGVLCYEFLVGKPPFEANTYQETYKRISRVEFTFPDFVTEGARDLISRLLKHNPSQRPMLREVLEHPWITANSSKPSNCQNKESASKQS

[3] = target: Tyrosine-protein kinase receptor UFO (Homo sapiens) (UniProt P30530); assay: Inhibition of AXL (unknown origin) at 1 uM
Chain of Tyrosine-protein kinase receptor UFO (Homo sapiens) (P30530 whole entry): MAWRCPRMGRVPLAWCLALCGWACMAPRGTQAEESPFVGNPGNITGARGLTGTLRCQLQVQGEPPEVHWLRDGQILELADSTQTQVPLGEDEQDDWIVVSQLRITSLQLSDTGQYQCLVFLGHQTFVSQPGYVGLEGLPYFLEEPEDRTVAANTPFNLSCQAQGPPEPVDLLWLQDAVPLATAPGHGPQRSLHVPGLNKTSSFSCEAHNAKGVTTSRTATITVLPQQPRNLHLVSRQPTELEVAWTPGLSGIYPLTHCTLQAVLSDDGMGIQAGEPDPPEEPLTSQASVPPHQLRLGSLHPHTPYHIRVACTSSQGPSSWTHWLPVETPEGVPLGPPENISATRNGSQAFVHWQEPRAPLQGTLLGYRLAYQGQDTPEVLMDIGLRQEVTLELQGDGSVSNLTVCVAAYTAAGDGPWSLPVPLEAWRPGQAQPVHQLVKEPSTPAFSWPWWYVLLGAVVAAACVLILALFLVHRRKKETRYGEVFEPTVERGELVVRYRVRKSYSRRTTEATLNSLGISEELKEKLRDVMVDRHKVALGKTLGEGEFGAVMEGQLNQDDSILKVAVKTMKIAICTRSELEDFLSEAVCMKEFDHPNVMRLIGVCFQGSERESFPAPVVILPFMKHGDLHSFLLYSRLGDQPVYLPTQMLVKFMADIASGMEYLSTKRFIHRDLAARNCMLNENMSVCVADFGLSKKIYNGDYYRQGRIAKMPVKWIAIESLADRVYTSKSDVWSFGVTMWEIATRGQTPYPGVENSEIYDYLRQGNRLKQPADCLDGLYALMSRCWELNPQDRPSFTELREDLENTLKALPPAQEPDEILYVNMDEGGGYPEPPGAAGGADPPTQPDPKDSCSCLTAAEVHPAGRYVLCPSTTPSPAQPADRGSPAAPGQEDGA

[4] = target: Serine/threonine-protein kinase B-raf (Homo sapiens) (UniProt P15056); assay: Inhibition of B-RAF (unknown origin) at 1 uM
[5] = target: CDK2/Cyclin A2 (Homo sapiens) (UniProt P24941+P20248); assay: Inhibition of CDK2/CyclinA (unknown origin) at 1 uM; format: protein-complex assay
[6] = target: Cyclin-dependent kinase 4/cyclin D1 (Homo sapiens) (UniProt P11802+P24385); assay: Inhibition of CDK4/cyclin D1 (unknown origin) at 1 uM; format: protein-complex assay
[7] = target: Mast/stem cell growth factor receptor Kit (Homo sapiens) (UniProt P10721); assay: Inhibition of cKIT (unknown origin) at 1 uM
[8] = target: Tyrosine-protein kinase CSK (Homo sapiens) (UniProt P41240); assay: Inhibition of CSK (unknown origin) at 1 uM
[9] = target: Epithelial discoidin domain-containing receptor 1 (Homo sapiens) (UniProt Q08345); assay: Inhibition of DDR1 (unknown origin) at 1 uM
[10] = target: Receptor-type tyrosine-protein kinase FLT3 (Homo sapiens) (UniProt P36888); assay: Inhibition of FLT3 (unknown origin) at 1 uM
[11] = target: T2, Inhibitor of nuclear factor kappa-B kinase subunit beta (Homo sapiens) (UniProt O14920); assay: Inhibition of IKKbeta (unknown origin) at 1 uM
T2 sequence (whole entry): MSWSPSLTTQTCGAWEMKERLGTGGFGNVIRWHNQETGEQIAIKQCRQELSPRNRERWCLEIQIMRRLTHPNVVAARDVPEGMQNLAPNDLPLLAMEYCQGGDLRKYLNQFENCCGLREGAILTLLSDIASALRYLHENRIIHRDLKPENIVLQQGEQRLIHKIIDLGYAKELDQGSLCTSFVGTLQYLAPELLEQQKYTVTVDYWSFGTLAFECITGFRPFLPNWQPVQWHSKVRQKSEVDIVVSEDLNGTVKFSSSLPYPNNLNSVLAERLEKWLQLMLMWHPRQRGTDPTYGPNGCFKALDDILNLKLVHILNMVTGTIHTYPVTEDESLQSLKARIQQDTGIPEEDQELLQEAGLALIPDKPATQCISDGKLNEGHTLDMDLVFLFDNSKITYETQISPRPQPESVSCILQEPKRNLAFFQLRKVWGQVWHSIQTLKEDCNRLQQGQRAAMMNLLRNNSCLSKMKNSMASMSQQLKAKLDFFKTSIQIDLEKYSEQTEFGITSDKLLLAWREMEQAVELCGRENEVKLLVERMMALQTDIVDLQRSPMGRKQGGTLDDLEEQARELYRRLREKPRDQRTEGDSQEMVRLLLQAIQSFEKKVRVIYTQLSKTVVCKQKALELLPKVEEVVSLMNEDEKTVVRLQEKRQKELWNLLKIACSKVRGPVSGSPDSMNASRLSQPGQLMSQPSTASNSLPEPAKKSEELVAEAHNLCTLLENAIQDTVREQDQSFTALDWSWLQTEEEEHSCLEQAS

[12] = target: T3, Interleukin-1 receptor-associated kinase 4 (Homo sapiens) (UniProt Q9NWZ3); assay: Inhibition of IRAK4 (unknown origin) at 1 uM
T3 sequence (whole entry): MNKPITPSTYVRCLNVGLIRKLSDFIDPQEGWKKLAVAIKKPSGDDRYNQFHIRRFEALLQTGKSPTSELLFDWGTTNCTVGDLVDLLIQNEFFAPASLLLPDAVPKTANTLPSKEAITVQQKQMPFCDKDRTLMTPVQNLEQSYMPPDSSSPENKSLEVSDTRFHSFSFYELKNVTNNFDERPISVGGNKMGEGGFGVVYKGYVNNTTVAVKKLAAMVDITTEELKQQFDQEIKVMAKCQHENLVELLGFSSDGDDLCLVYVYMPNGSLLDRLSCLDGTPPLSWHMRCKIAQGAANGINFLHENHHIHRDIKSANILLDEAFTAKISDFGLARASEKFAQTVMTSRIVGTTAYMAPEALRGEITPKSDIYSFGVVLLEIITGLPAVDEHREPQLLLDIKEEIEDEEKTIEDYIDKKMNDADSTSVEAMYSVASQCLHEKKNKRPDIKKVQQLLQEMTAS

[13] = target: Mitogen-activated protein kinase 8 (Homo sapiens, UniProt P45983); assay: Inhibition of JNK1 (unknown origin) at 1 uM
Chain of Mitogen-activated protein kinase 8 (P45983 whole entry): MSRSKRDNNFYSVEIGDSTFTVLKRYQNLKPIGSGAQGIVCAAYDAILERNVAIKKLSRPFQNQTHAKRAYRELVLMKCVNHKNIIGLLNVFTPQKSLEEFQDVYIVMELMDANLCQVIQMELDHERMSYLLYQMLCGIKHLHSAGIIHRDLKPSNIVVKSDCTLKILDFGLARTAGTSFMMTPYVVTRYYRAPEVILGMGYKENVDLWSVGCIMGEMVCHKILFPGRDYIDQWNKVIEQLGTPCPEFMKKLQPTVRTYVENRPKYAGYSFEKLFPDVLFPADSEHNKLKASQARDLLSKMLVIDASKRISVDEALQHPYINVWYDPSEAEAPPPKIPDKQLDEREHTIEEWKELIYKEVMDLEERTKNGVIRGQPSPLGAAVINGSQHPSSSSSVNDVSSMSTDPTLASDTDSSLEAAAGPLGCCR

[14] = target: Mitogen-activated protein kinase 3 (Homo sapiens) (UniProt P27361); assay: Inhibition of ERK1 (unknown origin) at 1 uM
Chain of Mitogen-activated protein kinase 3 (Homo sapiens) (P27361 whole entry): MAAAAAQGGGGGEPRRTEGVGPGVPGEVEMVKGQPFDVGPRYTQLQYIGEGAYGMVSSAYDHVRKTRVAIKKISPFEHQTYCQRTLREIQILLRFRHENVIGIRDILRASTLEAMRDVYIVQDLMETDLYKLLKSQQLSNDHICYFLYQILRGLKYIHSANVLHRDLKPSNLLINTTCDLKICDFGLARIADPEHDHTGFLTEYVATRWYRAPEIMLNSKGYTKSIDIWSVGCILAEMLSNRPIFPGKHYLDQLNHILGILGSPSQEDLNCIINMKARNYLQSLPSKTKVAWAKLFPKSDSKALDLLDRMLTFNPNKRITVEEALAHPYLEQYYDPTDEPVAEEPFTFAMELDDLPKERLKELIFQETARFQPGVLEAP

[15] = target: Serine/threonine-protein kinase mTOR (Homo sapiens) (UniProt P42345); assay: Inhibition of mTOR (unknown origin) at 1 uM
[16] = target: Serine/threonine-protein kinase PAK 4 (Homo sapiens) (UniProt O96013); assay: Inhibition of PAK4 (unknown origin) at 1 uM
[17] = target: Platelet-derived growth factor receptor beta (Homo sapiens) (UniProt P09619); assay: Inhibition of PDGFRbeta (unknown origin) at 1 uM
Chain of Platelet-derived growth factor receptor beta (Homo sapiens) (P09619 whole entry): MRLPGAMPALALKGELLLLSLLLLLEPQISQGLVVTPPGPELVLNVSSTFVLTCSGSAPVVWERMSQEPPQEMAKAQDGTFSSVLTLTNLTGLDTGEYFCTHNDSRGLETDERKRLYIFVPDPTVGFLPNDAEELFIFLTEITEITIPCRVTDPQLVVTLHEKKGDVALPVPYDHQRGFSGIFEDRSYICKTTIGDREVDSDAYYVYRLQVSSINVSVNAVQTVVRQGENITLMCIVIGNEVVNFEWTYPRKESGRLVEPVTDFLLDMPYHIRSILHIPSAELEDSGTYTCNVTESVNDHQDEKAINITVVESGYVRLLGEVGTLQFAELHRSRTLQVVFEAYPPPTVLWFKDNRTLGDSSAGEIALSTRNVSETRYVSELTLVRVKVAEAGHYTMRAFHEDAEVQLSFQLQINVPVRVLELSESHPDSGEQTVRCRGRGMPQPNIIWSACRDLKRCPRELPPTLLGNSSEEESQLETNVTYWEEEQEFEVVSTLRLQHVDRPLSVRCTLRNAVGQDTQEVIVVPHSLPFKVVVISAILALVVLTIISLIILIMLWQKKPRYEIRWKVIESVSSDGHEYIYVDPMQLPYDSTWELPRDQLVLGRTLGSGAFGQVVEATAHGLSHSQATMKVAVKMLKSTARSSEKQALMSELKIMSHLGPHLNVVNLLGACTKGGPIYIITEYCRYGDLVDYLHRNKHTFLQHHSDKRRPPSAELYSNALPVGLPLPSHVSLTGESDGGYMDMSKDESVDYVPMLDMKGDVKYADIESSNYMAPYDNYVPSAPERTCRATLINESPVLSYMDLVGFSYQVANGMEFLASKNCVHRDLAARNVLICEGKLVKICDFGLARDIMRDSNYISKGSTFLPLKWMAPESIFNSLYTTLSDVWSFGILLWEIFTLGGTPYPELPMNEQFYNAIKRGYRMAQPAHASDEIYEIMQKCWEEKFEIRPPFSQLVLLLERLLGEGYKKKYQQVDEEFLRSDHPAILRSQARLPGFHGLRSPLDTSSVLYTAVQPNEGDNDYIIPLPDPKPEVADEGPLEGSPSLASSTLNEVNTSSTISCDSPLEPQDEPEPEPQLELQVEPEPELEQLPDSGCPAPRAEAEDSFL

[18] = target: Protein kinase C alpha type (Homo sapiens) (UniProt P17252); assay: Inhibition of PKCalpha (unknown origin) at 1 uM
[19] = target: Rho-associated protein kinase 2 (Homo sapiens) (UniProt O75116); assay: Inhibition of ROCK2 (unknown origin) at 1 uM
[20] = target: Vascular endothelial growth factor receptor 2 (Homo sapiens) (UniProt P35968); assay: Inhibition of VEGFR2 (unknown origin) at 1 uM
Chain of Vascular endothelial growth factor receptor 2 (Homo sapiens) (P35968 whole entry): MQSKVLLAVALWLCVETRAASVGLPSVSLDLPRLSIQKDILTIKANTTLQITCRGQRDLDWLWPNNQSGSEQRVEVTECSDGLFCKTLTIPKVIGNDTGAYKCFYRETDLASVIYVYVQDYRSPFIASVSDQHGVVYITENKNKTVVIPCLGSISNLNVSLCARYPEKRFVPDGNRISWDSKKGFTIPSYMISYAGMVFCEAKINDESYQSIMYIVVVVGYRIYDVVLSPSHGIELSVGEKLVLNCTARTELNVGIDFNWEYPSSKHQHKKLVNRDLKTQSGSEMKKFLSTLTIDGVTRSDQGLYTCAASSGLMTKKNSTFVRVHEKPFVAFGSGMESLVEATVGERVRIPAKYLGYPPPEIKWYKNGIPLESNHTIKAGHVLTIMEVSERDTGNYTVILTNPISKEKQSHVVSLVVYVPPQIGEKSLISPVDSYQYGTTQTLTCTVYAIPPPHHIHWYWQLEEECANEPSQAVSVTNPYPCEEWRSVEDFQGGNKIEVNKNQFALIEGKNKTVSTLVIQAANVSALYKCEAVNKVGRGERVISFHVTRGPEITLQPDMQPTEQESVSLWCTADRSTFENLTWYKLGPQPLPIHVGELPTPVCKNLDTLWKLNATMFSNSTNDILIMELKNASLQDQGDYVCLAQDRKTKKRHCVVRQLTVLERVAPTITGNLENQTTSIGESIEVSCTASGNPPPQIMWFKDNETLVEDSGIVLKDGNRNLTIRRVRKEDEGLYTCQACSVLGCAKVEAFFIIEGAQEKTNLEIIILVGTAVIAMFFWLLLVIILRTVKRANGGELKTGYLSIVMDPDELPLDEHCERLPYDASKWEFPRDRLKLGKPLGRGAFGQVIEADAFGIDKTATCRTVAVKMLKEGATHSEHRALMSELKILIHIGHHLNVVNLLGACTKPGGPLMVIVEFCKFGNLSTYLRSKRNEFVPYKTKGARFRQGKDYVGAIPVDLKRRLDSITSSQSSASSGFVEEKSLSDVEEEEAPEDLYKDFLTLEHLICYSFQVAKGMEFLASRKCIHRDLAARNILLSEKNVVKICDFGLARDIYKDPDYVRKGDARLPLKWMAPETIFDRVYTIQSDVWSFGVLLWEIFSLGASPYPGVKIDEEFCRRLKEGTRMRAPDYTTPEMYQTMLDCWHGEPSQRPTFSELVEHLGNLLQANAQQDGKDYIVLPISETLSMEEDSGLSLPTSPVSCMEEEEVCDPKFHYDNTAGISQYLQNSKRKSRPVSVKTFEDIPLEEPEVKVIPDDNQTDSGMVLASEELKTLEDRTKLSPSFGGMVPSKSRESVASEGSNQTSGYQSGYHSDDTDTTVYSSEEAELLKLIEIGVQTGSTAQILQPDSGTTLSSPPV

[21] = target: Mitogen-activated protein kinase 8 (Rattus norvegicus) (UniProt P49185); assay: Inhibition of albumin-conjugated palmitate-induced JNK1/2 phosphorylation assessed as JNK phosphorylation level in rat RINm5F cells incubated for 8 hrs; format: cell-based
Chain of Mitogen-activated protein kinase 8 (Rattus norvegicus) (P49185 whole entry): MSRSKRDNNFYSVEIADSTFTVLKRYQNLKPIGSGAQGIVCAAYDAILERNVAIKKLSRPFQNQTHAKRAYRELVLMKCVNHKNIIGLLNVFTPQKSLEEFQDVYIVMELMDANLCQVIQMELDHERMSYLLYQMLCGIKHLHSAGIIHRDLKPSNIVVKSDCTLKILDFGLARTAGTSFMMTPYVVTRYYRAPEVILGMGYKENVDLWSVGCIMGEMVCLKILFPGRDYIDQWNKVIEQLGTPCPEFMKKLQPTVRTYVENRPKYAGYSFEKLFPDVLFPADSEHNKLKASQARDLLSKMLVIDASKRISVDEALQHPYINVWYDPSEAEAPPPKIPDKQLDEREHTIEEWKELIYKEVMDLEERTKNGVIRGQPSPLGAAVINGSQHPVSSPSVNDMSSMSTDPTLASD

[22] = target: Mitogen-activated protein kinase 8 (Rattus norvegicus) (UniProt P49185); assay: Inhibition of JNK1 phosphorylation in rat RINm5F cells assessed as suppression of albumin-conjugated palmitate-induced IRS-1 Ser307 phosphorylation incubated for 8 hrs; format: cell-based; set-up: concentration or dose not given beside the values; conditions: concentration not given here

Chain of RAC-alpha serine/threonine-protein kinase (Homo sapiens) (P31749 whole entry): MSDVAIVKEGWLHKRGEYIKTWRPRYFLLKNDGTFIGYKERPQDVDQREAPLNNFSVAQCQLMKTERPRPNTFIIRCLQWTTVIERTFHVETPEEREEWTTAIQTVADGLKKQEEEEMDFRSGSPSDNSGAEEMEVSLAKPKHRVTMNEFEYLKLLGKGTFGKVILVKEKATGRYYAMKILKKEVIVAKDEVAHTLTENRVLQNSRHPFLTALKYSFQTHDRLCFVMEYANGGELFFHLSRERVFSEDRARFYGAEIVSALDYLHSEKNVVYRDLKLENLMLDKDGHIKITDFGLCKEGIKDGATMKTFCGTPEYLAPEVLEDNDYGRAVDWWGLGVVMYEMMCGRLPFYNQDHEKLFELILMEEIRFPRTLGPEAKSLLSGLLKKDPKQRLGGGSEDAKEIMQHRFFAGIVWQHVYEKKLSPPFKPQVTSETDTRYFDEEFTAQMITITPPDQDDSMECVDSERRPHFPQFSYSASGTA

inhibition [1]: 8%
inhibition [2]: 1%
inhibition [3]: 16%
inhibition [4]: 18%
inhibition [5]: 10%
inhibition [6]: 27%
inhibition [7]: 17%
inhibition [8]: 22%
inhibition [9]: 85%
inhibition [10]: 8%
inhibition [11]: 13%
inhibition [12]: 8%
inhibition [13]: 71%
inhibition [14]: 16%
inhibition [15]: 9%
inhibition [16]: 32%
inhibition [17]: 13%
inhibition [18]: 10%
inhibition [19]: 13%
inhibition [20]: 9%
inhibition [21]: inactive
inhibition [22]: 96%
SMILES: Cn1c(=O)c(Oc2ccc(F)cc2F)cc2cnc(NC3CCN(S(N)(=O)=O)CC3)nc21
